Results from BindingDB's records for doi:10.1016/s0006-291x(02)03054-1 (Pharmacia, 2003).

Biological target: FMRFamide-like neuropeptides 14 (Ascaris)

Question: `Nc1nc2c(ncn2C2OC(COP(=O)(O)OP(=O)(O)OP(=O)(O)O)C(O)C2O)c(=O)[nH]1` (stereo unspecified) [CAS_6830] was tested. Which Ki did it give?
Answer: 10.5 nM
